# Source: patent publication US7829578B1, “Aromatic ketones and uses thereof” (Oregon Health & Science University, priority 2005, dated 2010)
# Where two headings read alike, the source gives them in different places.
# How the values were obtained:
# [1] = system: multidrug resistant Dd2 strain of P. falciparum; assay: Isobolar analysis of combination with clopidol in vitro (FIG. 4); assay type: cell-based, Plasmodium falciparum
# Method: Values below the theoretical straight line of addition are considered to be indicative of synergism. This study was performed with the multidrug resistant Dd2 strain of P. falciparum.
# [2] = system: Plasmodium parasitized red blood cells; assay: Oxygen consumption (respiration) by parasitized red blood cells (FIG. 3); assay type: cell-based; conditions: compared with atovaquone at equimolar concentrations
# Description: While not intending to be limited to any mechanism of action, it is contemplated that some of the presently described compounds may act through inhibiting parasite growth through inhibition of the enzyme cytochrome b.
# [3] = system: multi-drug resistant strains of Plasmodium falciparum (W2, Dd2, 7G8 and Tm93C1088); assay: In vitro antimalarial activity against multi-drug resistant strains; assay type: cell-based; conditions: for IC50 values, stated in words: against multidrug resistant Plasmodium falciparum parasites; for IC50: Plasmodium falciparum
# Method: (§1) Four different laboratory strains of P. falciparum were cultured in human erythrocytes by standard methods under a low oxygen atmosphere (5% O2, 5% CO2, 90% N2) in an environmental chamber. The culture medium was RPMI 1640, supplemented with 25 mM Hepes buffer, 25 mg/liter gentamicin sulfate, 45 mg/liter hypoxanthine, 10 mM glucose, 2 mM glutamine, and 0.5% Albumax II (complete medium). The parasites were maintained in fresh human erythrocytes suspended at a 2% hematocrit in complete medium at 37° C. Stock cultures were sub-passaged every 3 to 4 days by transfer of infected red cells to a flask containing complete medium and uninfected erythrocytes.
# (§2) In vitro antimalarial activity of the test compounds was assessed by a fluorescence-based method described previously (Smilkstein et al., 2004, Antimicrobial Agents and Chemotherapy, Vol. 48, pgs. 1803-1806) (reference format?). The studies were set up in triplicate in 96 well plates with two-fold dilutions of each test compound across the plate in a total volume of 100 μl and at a final red blood cell concentration of 2% (v/v). Stock solutions of each drug were prepared by dissolving in DMSO at 10 mM. […] In every case, an additional determination was performed to ensure bracketing of the IC50 value by at least an order of magnitude.
# (§3) Automated pipeting and dilution was carried out by a programmable Precision 2000 robotic station (Bio-Tek, Winooski, Vt.). An initial parasitemia of 0.2% was attained by addition of normal uninfected red cells to a stock culture of asynchronous parasite infected red cells (PRBC). The plates were incubated for 72 hrs at 37° C. in an atmosphere of 5% CO2, 5% O2, and 90% N2. After this period, the SyBrGreen I dye-detergent mixture (100 μl) was added and the plates were incubated at room temperature for an hour in the dark and then placed in a 96-well fluorescence plate reader (Gemini-EM, […]) for analysis with excitation and emission wavelength bands centered at 497 and 520 nm, respectively.
# [4] = system: drug susceptible (D6) strain of Plasmodium falciparum; assay: In vitro antimalarial MSF (SyBrGreen I fluorescence) assay, D6 strain; assay type: cell-based; conditions: for improvement of antimalarial potency by the QZ group: compared to IC50 of the parent compound without the QZ side chain
# Method: as §1, §2, §3
# [5] = system: multi-drug resistant strain (W2) of Plasmodium falciparum; assay: In vitro antimalarial activity, W2 strain; assay type: cell-based; conditions: read-out: IC50 against multi-drug resistant strain (W2)
# Method: as §1
# In vitro antimalarial activity of the test compounds was assessed by a fluorescence-based method described previously (Smilkstein et al., 2004, Antimicrobial Agents and Chemotherapy, Vol. 48, pgs. 1803-1806) (reference format?). […]
# Automated pipeting and dilution was carried out by a programmable Precision 2000 robotic station (Bio-Tek, Winooski, Vt.). […] After this period, the SyBrGreen I dye-detergent mixture (100 μl) was added and the plates were incubated at room temperature for an hour in the dark and then placed in a 96-well fluorescence plate reader (Gemini-EM, […]) for analysis with excitation and emission wavelength bands centered at 497 and 520 nm, respectively.
# [6] = system: Murine splenic lymphocytes; assay: MSLCs-concanavalin A induced proliferation (blastogenesis) cytotoxicity assay, Alamar Blue fluorescence; assay type: cell-based; conditions: Mus musculus, Splenic lymphocyte, Table 3, 48-hr MSLCs-concanavalin A induced proliferation
# [7] = system: multi-drug resistant (Dd2) strain of Plasmodium falciparum; assay: In vitro antimalarial MSF (SyBrGreen I fluorescence) assay, Dd2 strain; assay type: cell-based; conditions: Plasmodium falciparum, DD2, Table 3
# Method: as §1, §2, §3
# [8] = Plasmodium falciparum, D6, read-out: IC50 against drug sensitive (D6) strain
compound,measurement,setting,value
"COc1ccc2c(=O)c(CCCCCC(F)(F)F)c(C)[nH]c2c1 [2-methyl-3-(6,6,6-trifluorohexyl)-7-methoxy-4(1H)-quinolone]",interaction with clopidol,[1],acting in synergy with clopidol
same,inhibition of oxygen consumption (respiration),[2],inhibiting oxygen consumption by Plasmodium parasitized red blood cells in similar fashion to atovaquone
"O=C1C=C(OCCCCC(F)(C(F)(F)F)C(F)(F)F)C(=O)c2ccccc21 [NAP 005, 2-(5,6,6,6-tetrafluoro-5-trifluoromethyl-hexyloxy)-[1,4]naphthoquinone]",inhibition of oxygen consumption (respiration),[2],does not inhibit oxygen consumption
same,"IC50 values, stated in words",[3],low nanomolar range
"O=C1C=C(OCCCCC(F)(F)F)C(=O)c2ccccc21 [No. 35, 2-(5,5,5-trifluoropentyloxy)-1,4-naphthoquinone]",IC50,[4]; [8],~133 nM
same,improvement of antimalarial potency by the QZ group,[4],roughly 50 fold
same,IC50,[3],~133 nM
"COc1ccc2c(=O)c(CCCCCC(F)(F)F)c(C)[nH]c2c1 [No. 44, 2-methyl-3-(6,6,6-trifluorohexyl)-7-methoxy-4(1H)-quinolone]",inhibition of oxygen consumption (respiration),"[2]; listed as 2-methyl-3-(6,6,6-trifluorohexyl)-7-methoxy-4-quinolone",equivalent to atovaquone at equimolar concentrations
same,"IC50 values, stated in words",[3],low nanomolar range
"COc1ccc2c(=O)c(CCCCCCCCCCC(F)(F)F)c(C)[nH]c2c1 [No. 45, 2-methyl-3-(11,11,11-trifluoro-undecy1)-7-methoxy-4(1H)-quinolone]",IC50,[5],~0.2 nM
same,improvement of antimalarial potency by the QZ group,[4],"more than 1,000 fold"
same,IC50,[4]; read-out: IC50 against drug sensitive (D6) strain,~0.2 nM
"O=c1c2ccc(O)cc2oc2cc(OCCCCCC(F)(F)F)ccc12 [3-(6,6,6-trifluorohexyloxy)-6-hydroxyxanthone]",IC50,[4]; [8],~700 nM
same,improvement of antimalarial potency by the QZ group,[4],more than 100 fold
same,IC50,[3],~700 nM
"O=c1c2ccc(Cl)cc2[nH]c2cc(OCCCCCC(F)(F)F)ccc12 [No. 21, 3-(6,6,6-trifluorohexyloxy)-6-chloroacridone]",IC50,[4]; [8],0.16 nM
same,improvement of antimalarial potency by the QZ group,[4],"more than 10,000 fold"
same,IC50,[3],0.16 nM
COc1ccc2c(=O)c(CCCCCC(F)(F)F)c(C)[nH]c2c1 [compound 44],IC50,"[4]; Plasmodium falciparum, D6, Table 3, MSF assay, read-out: D6 IC50",10.2 nM
same,IC50,[6],> 25000 nM
same,IC50,[7],12.8 nM
